{"source": "patent US10450270B2", "about": "“Glyoxamide substituted pyrrolamide derivatives and the use thereof as medicaments for the treatment of hepatitis B” (Janssen Sciences Ireland UC, priority 2013, dated 2019)", "key": {"HBV [1]": {"system": "HBV", "test": "Anti-HBV activity, HepG2.2.15 stable transfected cell line, HBV DNA from secreted virions by realtime PCR", "assay_type": "cell-based", "conditions": "Hepatitis B virus"}, "HBV [2]": {"system": "HBV", "test": "Anti-HBV activity, HepG2.117 inducible HBV producing cell line (Tet-off), intracellular HBV DNA by realtime PCR", "assay_type": "cell-based", "conditions": "Hepatitis B virus"}, "[3]": {"test": "Cytotoxicity in HepG2 cells, Resazurin viability assay", "conditions": "human, HepG2 cells"}, "[4]": {"conditions": "144 h, HepG2.2.15 cells, 6 days of treatment, HBV DNA from secreted virions, read-out: HepG 2.2.15 EC50"}, "[5]": {"conditions": "72 h, HepG2.117 cells, 3 days of treatment, intracellular HBV DNA, read-out: HepG2 117 EC50"}}, "data": [{"molecule": "Cc1cc(NC(=O)c2cc(C(=O)C(=O)NC(C)C)cn2C)ccc1F", "note": "[Compound 2, N-(4-fluoro-3-methylphenyl)-4-(2-(isopropylamino)-2-oxoacetyl)-1-methyl-1H-pyrrole-2-carboxamide]", "values": [{"measurement": "EC50", "setting": "HBV [1]; HepG2.2.15, 144 h, read-out: HepG 2.2.15 EC50 (μM)", "value": 0.029, "unit": "µM"}, {"measurement": "EC50", "setting": "HBV [2]; HepG2.117, 72 h, read-out: HepG2 117 EC50 (μM)", "value": 0.75, "unit": "µM"}, {"measurement": "CC50 at 4 days", "setting": "[3]", "value": "> 25", "unit": "µM"}]}, {"molecule": "Cc1cc(NC(=O)c2cc(C(=O)C(=O)NC(C)(C)C)cn2C)ccc1F", "note": "[Compound 3, 4-(2-(tert-butylamino)-2-oxoacetyl)-N-(4-fluoro-3-methylphenyl)-1-methyl-1H-pyrrole-2-carboxamide]", "values": [{"measurement": "EC50", "setting": "HBV [1]; [4]", "value": 0.015, "unit": "µM"}, {"measurement": "EC50", "setting": "HBV [2]; [5]", "value": 0.04, "unit": "µM"}, {"measurement": "CC50 at 4 days", "setting": "[3]", "value": "> 25", "unit": "µM"}]}, {"molecule": "Cc1cc(NC(=O)c2cc(C(=O)C(=O)NC(C)(C)C(N)=O)cn2C)ccc1F", "note": "[Compound 8, 4-{[(2-Amino-1,1-dimethyl-2-oxoethyl)amino](oxo)acetyl}-N-(4-fluoro-3-methylphenyl)-1-methyl-1H-pyrrole-2-carboxamide]", "values": [{"measurement": "EC50", "setting": "HBV [1]; [4]", "value": 0.052, "unit": "µM"}, {"measurement": "EC50", "setting": "HBV [2]; [5]", "value": 0.038, "unit": "µM"}, {"measurement": "CC50 at 4 days", "setting": "[3]", "value": "> 25", "unit": "µM"}]}, {"molecule": "Cc1cc(NC(=O)c2cc(C(=O)C(=O)N[C@H](C)CC#N)cn2C)ccc1F", "note": "[Compound 9, 4-[{[(1R)-2-Cyano-1-methylethyl]amino}(oxo)acetyl]-N-(4-fluoro-3-methyl-phenyl)-1-methyl-1H-pyrrole-2-carboxamide]", "values": [{"measurement": "EC50", "setting": "HBV [1]; [4]", "value": 0.17, "unit": "µM"}, {"measurement": "EC50", "setting": "HBV [2]; [5]", "value": 0.2, "unit": "µM"}, {"measurement": "CC50 at 4 days", "setting": "[3]", "value": "> 25", "unit": "µM"}]}, {"molecule": "Cc1c(C(=O)C(=O)NC2(C)CCCOC2)cc(C(=O)Nc2ccc(F)c(C#N)c2)n1C", "note": "(centres unmarked) [Compound 78, N-(3-cyano-4-fluoro-phenyl)-1,5-dimethyl-4-[2-[(3-methyltetrahydropyran-3-yl)amino]-2-oxo-acetyl]pyrrole-2-carboxamide]", "values": [{"measurement": "EC50", "setting": "HBV [2]; [5]", "value": 0.008, "unit": "µM"}, {"measurement": "CC50 at 4 days", "setting": "[3]", "value": "> 25", "unit": "µM"}]}, {"molecule": "COCC(C)(C)NC(=O)C(=O)c1cc(C(=O)Nc2ccc(F)c(C#N)c2)n(C)c1C", "note": "[Compound 79, N-(3-cyano-4-fluoro-phenyl)-4-[2-[(2-methoxy-1,1-dimethyl-ethyl)amino]-2-oxo-acetyl]-1,5-dimethyl-pyrrole-2-carboxamide]", "values": [{"measurement": "EC50", "setting": "HBV [2]; [5]", "value": 0.008, "unit": "µM"}, {"measurement": "CC50 at 4 days", "setting": "[3]", "value": "> 25", "unit": "µM"}]}, {"molecule": "COCC(C)(NC(=O)C(=O)c1cc(C(=O)Nc2ccc(F)c(C#N)c2)n(C)c1C)C(F)(F)F", "note": "(centres unmarked) [Compound 80, N-(3-cyano-4-fluoro-phenyl)-1,5-dimethyl-4-[2-oxo-2-[[2,2,2-trifluoro-1-(methoxymethyl)-1-methyl-ethyl]amino]acetyl]pyrrole-2-carboxamide]", "values": [{"measurement": "EC50", "setting": "HBV [2]; [5]", "value": 0.007, "unit": "µM"}, {"measurement": "CC50 at 4 days", "setting": "[3]", "value": "> 25", "unit": "µM"}]}, {"molecule": "Cc1c(C(=O)C(=O)NC(C)(C)CCO)cc(C(=O)Nc2ccc(F)c(C#N)c2)n1C", "note": "[Compound 81, N-(3-cyano-4-fluoro-phenyl)-4-[2-[(3-hydroxy-1,1-dimethyl-propyl)amino]-2-oxo-acetyl]-1,5-dimethyl-pyrrole-2-carboxamide]", "values": [{"measurement": "EC50", "setting": "HBV [2]; [5]", "value": 0.012, "unit": "µM"}, {"measurement": "CC50 at 4 days", "setting": "[3]", "value": "> 25", "unit": "µM"}]}, {"molecule": "Cc1c(C(=O)C(=O)NC2(C(F)(F)F)CCC(O)CC2)cc(C(=O)Nc2ccc(F)c(C#N)c2)n1C", "note": "(centres unmarked) [Compound 82, N-(3-cyano-4-fluoro-phenyl)-4-[2-[[4-hydroxy-1-(trifluoromethyl)cyclo-hexyl]amino]-2-oxo-acetyl]-1,5-dimethyl-pyrrole-2-carboxamide]", "values": [{"measurement": "EC50", "setting": "HBV [2]; [5]", "value": 0.003, "unit": "µM"}, {"measurement": "CC50 at 4 days", "setting": "[3]", "value": "> 25", "unit": "µM"}]}, {"molecule": "Cn1cc(C(=O)C(=O)NC2(C(F)(F)F)CCOC2)c(F)c1C(=O)Nc1ccc(F)c(C#N)c1", "note": "(centres unmarked) [Compound 83, N-(3-cyano-4-fluoro-phenyl)-3-fluoro-1-methyl-4-[2-oxo-2-[[3-(trifluoro-methyl)tetrahydrofuran-3-yl]amino]acetyl]pyrrole-2-carboxamide]", "values": [{"measurement": "EC50", "setting": "HBV [2]; [5]", "value": 0.006, "unit": "µM"}, {"measurement": "CC50 at 4 days", "setting": "[3]", "value": 11.8, "unit": "µM"}]}, {"molecule": "Cn1cc(C(=O)C(=O)NC2(C(F)(F)F)CCC2)c(F)c1C(=O)Nc1ccc(F)c(C#N)c1", "note": "[Compound 84, N-(3-cyano-4-fluoro-phenyl)-3-fluoro-1-methyl-4-[2-oxo-2-[[1-(trifluoro-methyl)cyclobutyl]amino]acetyl]pyrrole-2-carboxamide]", "values": [{"measurement": "EC50", "setting": "HBV [2]; [5]", "value": 0.003, "unit": "µM"}, {"measurement": "CC50 at 4 days", "setting": "[3]", "value": 21.9, "unit": "µM"}]}, {"molecule": "C[C@@H](NC(=O)C(=O)c1cn(C)c(C(=O)Nc2ccc(F)c(C#N)c2)c1F)C(F)(F)F", "note": "[Compound 85, N-(3-cyano-4-fluoro-phenyl)-3-fluoro-1-methyl-4-[2-oxo-2-[[(1R)-2,2,2-trifluoro-1-methyl-ethyl]amino]acetyl]pyrrole-2-carboxamide]", "values": [{"measurement": "EC50", "setting": "HBV [2]; [5]", "value": 0.014, "unit": "µM"}, {"measurement": "CC50 at 4 days", "setting": "[3]", "value": "> 25", "unit": "µM"}]}, {"molecule": "C[C@@H](NC(=O)C(=O)c1c(Cl)c(C(=O)Nc2ccc(F)c(C#N)c2)n(C)c1Cl)C(F)(F)F", "note": "[Compound 86, 3,5-dichloro-N-(3-cyano-4-fluoro-phenyl)-1-methyl-4-[2-oxo-2-[[(1R)-2,2,2-trifluoro-1-methyl-ethyl]amino]acetyl]pyrrole-2-carboxamide]", "values": [{"measurement": "EC50", "setting": "HBV [2]; [5]", "value": 0.006, "unit": "µM"}, {"measurement": "CC50 at 4 days", "setting": "[3]", "value": "> 25", "unit": "µM"}]}, {"molecule": "Cn1c(Cl)c(C(=O)C(=O)NC2(C(F)(F)F)CCOC2)c(F)c1C(=O)Nc1ccc(F)c(C#N)c1", "note": "(centres unmarked) [Compound 89, 5-chloro-N-(3-cyano-4-fluoro-phenyl)-3-fluoro-1-methyl-4-[2-oxo-2-[[3-(trifluoromethyl)tetrahydrofuran-3-yl]amino]acetyl]pyrrole-2-carboxamide]", "values": [{"measurement": "EC50", "setting": "HBV [2]; [5]", "value": 0.008, "unit": "µM"}, {"measurement": "CC50 at 4 days", "setting": "[3]", "value": "> 25", "unit": "µM"}]}, {"molecule": "Cn1c(Cl)c(C(=O)C(=O)NC2(C(F)(F)F)CCC2)c(F)c1C(=O)Nc1ccc(F)c(C#N)c1", "note": "[Compound 90, 5-chloro-N-(3-cyano-4-fluoro-phenyl)-3-fluoro-1-methyl-4-[2-oxo-2-[[1-(trifluoromethyl)cyclobutyl]amino]acetyl]pyrrole-2-carboxamide]", "values": [{"measurement": "EC50", "setting": "HBV [2]; [5]", "value": 0.032, "unit": "µM"}, {"measurement": "CC50 at 4 days", "setting": "[3]", "value": "> 25", "unit": "µM"}]}, {"molecule": "C[C@@H](NC(=O)C(=O)c1c(F)c(C(=O)Nc2ccc(F)c(C#N)c2)n(C)c1Cl)C(F)(F)F", "note": "[Compound 91, 5-chloro-N-(3-cyano-4-fluoro-phenyl)-3-fluoro-1-methyl-4-[2-oxo-2-[[(1R)-2,2,2-trifluoro-1-methyl-ethyl]amino]acetyl]pyrrole-2-carboxamide]", "values": [{"measurement": "EC50", "setting": "HBV [2]; [5]", "value": 0.3, "unit": "µM"}, {"measurement": "CC50 at 4 days", "setting": "[3]", "value": "> 25", "unit": "µM"}]}, {"molecule": "C[C@@H](NC(=O)C(=O)c1cn(C)c(C(=O)Nc2ccc(F)c(C#N)c2)c1F)C(C)(F)F", "note": "[Compound 93, N-(3-cyano-4-fluoro-phenyl)-4-[2-[[(1R)-2,2-difluoro-1-methylpropyl]-amino]-2-oxo-acetyl]-3-fluoro-1-methyl-pyrrole-2-carboxamide]", "values": [{"measurement": "EC50", "setting": "HBV [2]; [5]", "value": 0.015, "unit": "µM"}, {"measurement": "CC50 at 4 days", "setting": "[3]", "value": "> 25", "unit": "µM"}]}, {"molecule": "Cc1c(C(=O)C(=O)NC(C)(C)CO)cc(C(=O)Nc2ccc(F)c(C#N)c2)n1C", "note": "[Compound 94, N-(3-cyano-4-fluoro-phenyl)-4-[2-[(2-hydroxy-1,1-dimethyl-ethyl)amino]-2-oxo-acetyl]-1,5-dimethyl-pyrrole-2-carboxamide]", "values": [{"measurement": "EC50", "setting": "HBV [2]; [5]", "value": 0.004, "unit": "µM"}, {"measurement": "CC50 at 4 days", "setting": "[3]", "value": "> 25", "unit": "µM"}]}, {"molecule": "C[C@H](CO)NC(=O)C(=O)c1cn(C)c(C(=O)Nc2ccc(F)c(C#N)c2)c1F", "note": "[Compound 95, N-(3-cyano-4-fluoro-phenyl)-3-fluoro-4-[2-[[(1R)-2-hydroxy-1-methyl-ethyl]amino]-2-oxo-acetyl]-1-methyl-pyrrole-2-carboxamide]", "values": [{"measurement": "EC50", "setting": "HBV [2]; [5]", "value": 0.065, "unit": "µM"}, {"measurement": "CC50 at 4 days", "setting": "[3]", "value": "> 25", "unit": "µM"}]}, {"molecule": "COCC(C)(C)NC(=O)C(=O)c1cn(C)c(C(=O)Nc2ccc(F)c(C#N)c2)c1F", "note": "[Compound 96, N-(3-cyano-4-fluoro-phenyl)-3-fluoro-4-[2-[(2-methoxy-1,1-dimethyl-ethyl)amino]-2-oxo-acetyl]-1-methyl-pyrrole-2-carboxamide]", "values": [{"measurement": "EC50", "setting": "HBV [2]; [5]", "value": 0.006, "unit": "µM"}, {"measurement": "CC50 at 4 days", "setting": "[3]", "value": "> 25", "unit": "µM"}]}]}
